Test system: HepaRG
Test: LDH release cytotoxicity, % of total lysis control; higher = more cytotoxic
Settings: 48 h
Procedure, shortened: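 On collagen I-coated 96-well plates, single-lot HepaRG cells were exposed for 48 h, in duplicate, to eight-point half-log series of test chemicals beginning at 100 µM. The exposure medium was serum-free induction medium with 0.5% DMSO, and total lysis wells got 0.1% Triton X. Resorufin fluorescence from the CytoTox-ONE reaction, read on a Tecan Safire, reported LDH in 50 µL of spent medium. Percent cytotoxicity came from normalization to on-plate vehicle and total lysis controls, averaged over the duplicates.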

CCCCCc1ccc(N)cc1 [4-Pentylaniline]
Settings | LDH release cytotoxicity [%]
0.03162 µM | -0.0179
0.1 µM | -1.43
0.3162278 µM | -0.689
1 µM | -0.976
3.16228 µM | -0.886
10 µM | -0.634
31.6228 µM | -0.209
100 µM | 1.34

C1CC2OC2CC1C1CO1 (centres undefined) [4-Vinyl-1-cyclohexene dioxide]
Settings | LDH release cytotoxicity [%]
0.03162 µM | -0.357
0.1 µM | -1.96
0.3162278 µM | -2.19
1 µM | -1.67
3.16228 µM | -1.29
10 µM | -1.43
31.6228 µM | -0.613
100 µM | 78.1

CC1(C)NC(=O)NC1=O [5,5-Dimethylhydantoin]
Settings | LDH release cytotoxicity [%]
0.03162 µM | -2.18
0.1 µM | -2.28
0.3162278 µM | -2.14
1 µM | -3.5
3.16228 µM | -1.38
10 µM | -1.82
31.6228 µM | -1.07
100 µM | 1.93

O=C1NC(=O)C(c2ccccc2)(c2ccccc2)N1 [5,5-Diphenylhydantoin]
Settings | LDH release cytotoxicity [%]
0.01581 µM | -5.31
0.05 µM | -5.08
0.1581139 µM | -5.88
0.5 µM | -6.19
1.5811388 µM | -4.95
5 µM | 40.5
15.8114 µM | 50.1
50 µM | 44.7

O=C(O)c1cc(Oc2ccc(C(F)(F)F)cc2Cl)ccc1[N+](=O)[O-] [5-(2-Chloro-4-(trifluoromethyl)phenoxy)-2-nitrobenzoic acid]
Settings | LDH release cytotoxicity [%]
0.03162 µM | -0.08
0.1 µM | -1.4
0.3162278 µM | -0.769
1 µM | -1.39
3.16228 µM | -0.738
10 µM | -0.0876
31.6228 µM | 0.334
100 µM | 2.95

Cc1ccc(N)cc1O [5-Amino-2-methylphenol]
Settings | LDH release cytotoxicity [%]
0.03162 µM | -0.861
0.1 µM | -1.2
0.3162278 µM | -0.469
1 µM | -1.04
3.16228 µM | -0.613
10 µM | -0.636
31.6228 µM | -0.124
100 µM | 0.121

Cn1sc(Cl)cc1=O [5-Chloro-2-methyl-3(2H)-isothiazolone]
Settings | LDH release cytotoxicity [%]
0.03162 µM | -0.707
0.1 µM | -1.2
0.3162278 µM | -0.511
1 µM | -1.23
3.16228 µM | -0.949
10 µM | -0.788
31.6228 µM | -1.56
100 µM | -1.76

O=C(Nc1ccc([N+](=O)[O-])cc1Cl)c1cc(Cl)ccc1O [5-Chloro-N-(2-chloro-4-nitrophenyl)-2-hydroxybenzamide]
Settings | LDH release cytotoxicity [%]
0.03162 µM | 1.65
0.1 µM | -0.562
0.3162278 µM | -0.79
1 µM | -0.00174
3.16228 µM | 0.224
10 µM | 1.07
31.6228 µM | 1.7
100 µM | 4.52

O=C1N=CC(F)C(=O)N1 (centres undefined) [5-Fluorouracil]
Settings | LDH release cytotoxicity [%]
0.03162 µM | -1.55
0.1 µM | -3.9
0.3162278 µM | -0.836
1 µM | -1.84
3.16228 µM | -1.66
10 µM | -1.56
31.6228 µM | -1.98
100 µM | 8.44

COc1ccc([N+](=O)[O-])cc1N [5-Nitro-o-anisidine]
Settings | LDH release cytotoxicity [%]
0.03162 µM | 0.0404
0.1 µM | -1.94
0.3162278 µM | -1.36
1 µM | -1.28
3.16228 µM | -1.4
10 µM | -1.25
31.6228 µM | 0.0123
100 µM | 0.941

Cc1ccc([N+](=O)[O-])cc1N [5-Nitro-o-toluidine]
Settings | LDH release cytotoxicity [%]
0.03162 µM | -0.782
0.1 µM | -1.02
0.3162278 µM | -1.84
1 µM | -1.647
3.16228 µM | -1.55
10 µM | -1.24
31.6228 µM | -0.792
100 µM | -0.343

CC12CCC3C(CCC4CC(=O)CCC43C)C1CCC2O (stereo not drawn) [5alpha-Dihydrotestosterone]
Settings | LDH release cytotoxicity [%]
0.0322552 µM | -1.49
0.102 µM | -1.05
0.322552 µM | -1.02
1.02 µM | -0.777
3.2255232 µM | -0.0601
10.2 µM | 0.259
32.2552 µM | 2.27
102 µM | 7.51

CC1=NC(=S)NC(=O)C1 [6-Methyl-2-thiouracil]
Settings | LDH release cytotoxicity [%]
0.03162 µM | -1.61
0.1 µM | -0.548
0.3162278 µM | 0.567
1 µM | 0.268
3.16228 µM | 0.0334
10 µM | 0.892
31.6228 µM | 0.733
100 µM | 0.731

Cc1ccc2ncccc2c1 [6-Methylquinoline]
Settings | LDH release cytotoxicity [%]
0.03162 µM | -1.09
0.1 µM | -1.74
0.3162278 µM | -0.691
1 µM | -0.702
3.16228 µM | 1.12
10 µM | 3.62
31.6228 µM | 6.32
100 µM | 12.7

CCCC1=NC(=S)NC(=O)C1 [6-Propyl-2-thiouracil]
Settings | LDH release cytotoxicity [%]
0.03162 µM | -1.25
0.1 µM | -1.68
0.3162278 µM | -2.72
1 µM | -2.49
3.16228 µM | -2.28
10 µM | -1.9
31.6228 µM | -1.25
100 µM | 0.0182

Nc1nc2nc[nH]c2c(=S)[nH]1 [6-Thioguanine]
Settings | LDH release cytotoxicity [%]
0.031623 µM | 1.04
0.1 µM | -2.6
0.316228 µM | -2.87
1 µM | -2.88
3.16228 µM | -2.5
10 µM | -2.64
31.6228 µM | -1.86
100 µM | -0.0388

OCCC(F)(F)C(F)(F)C(F)(F)C(F)(F)C(F)(F)C(F)(F)F [6:2 Fluorotelomer alcohol]
Settings | LDH release cytotoxicity [%]
0.03162 µM | -0.419
0.1 µM | -1.392
0.3162278 µM | -1.67
1 µM | -2.28
3.16228 µM | -1.52
10 µM | -1.12
31.6228 µM | -1.141
100 µM | -0.148

C=C(C)C(=O)OCCC(F)(F)C(F)(F)C(F)(F)C(F)(F)C(F)(F)C(F)(F)F [6:2 Fluorotelomer methacrylate]
Settings | LDH release cytotoxicity [%]
0.03162 µM | -0.461
0.1 µM | 0.735
0.3162278 µM | 0.518
1 µM | -0.0542
3.16228 µM | 0.38
10 µM | 0.535
31.6228 µM | 0.834
100 µM | 1.55

O=c1c(-c2ccc(O)cc2)coc2cc(O)ccc12 [7,4'-Dihydroxyisoflavone]
Settings | LDH release cytotoxicity [%]
0.03162 µM | -1.77
0.1 µM | -1.95
0.3162278 µM | -1.45
1 µM | -2.21
3.16228 µM | -1.87
10 µM | -0.343
31.6228 µM | -0.854
100 µM | 0.307

Cc1c2ccccc2c(C)c2c1ccc1ccccc12 [7,12-Dimethylbenz(a)anthracene]
Settings | LDH release cytotoxicity [%]
0.03162 µM | -1.46
0.1 µM | -1.68
0.3162278 µM | -1.43
1 µM | -1.27
3.16228 µM | -1.45
10 µM | -1.64
31.6228 µM | 1.86
100 µM | -0.663

CCC12COCN1COC2 [7a-Ethyldihydro-1H,3H,5H-oxazolo(3,4-c)oxazole]
Settings | LDH release cytotoxicity [%]
0.03162 µM | -1.45
0.1 µM | -1.96
0.3162278 µM | -1.68
1 µM | -1.43
3.16228 µM | -1.46
10 µM | -1.34
31.6228 µM | 0.0307
100 µM | 0.471

Oc1cccc2cccnc12 [8-Hydroxyquinoline]
Settings | LDH release cytotoxicity [%]
0.03162 µM | -1.07
0.1 µM | -1.23
0.3162278 µM | -1.16
1 µM | -1.2
3.16228 µM | -1.01
10 µM | -0.111
31.6228 µM | 0.218
100 µM | 2.33

OCCC(F)(F)C(F)(F)C(F)(F)C(F)(F)C(F)(F)C(F)(F)C(F)(F)C(F)(F)F [8:2 Fluorotelomer alcohol]
Settings | LDH release cytotoxicity [%]
0.031623 µM | -0.581
0.1 µM | -0.0838
0.316228 µM | -1.41
1 µM | -2.22
3.16228 µM | -2.23
10 µM | -1.35
31.6228 µM | -1.87
100 µM | 0.405

Oc1cc2ccccc2c2ccccc12 [9-Phenanthrol]
Settings | LDH release cytotoxicity [%]
0.03162 µM | -1.97
0.1 µM | -2.29
0.3162278 µM | -2.11
1 µM | -2.1
3.16228 µM | -2.21
10 µM | -2.2
31.6228 µM | -2.94
100 µM | 0.0725

C=CCCCCCCCCC(=O)O [10-Undecenoic acid]
Settings | LDH release cytotoxicity [%]
0.03162 µM | 0.758
0.1 µM | -0.653
0.3162278 µM | -0.789
1 µM | -0.96
3.16228 µM | -0.518
10 µM | -0.534
31.6228 µM | -1.07
100 µM | -0.0729

CC12CCC(=O)C=C1CCC1C2CCC2(C)C1CCC2(C)O (centres undefined) [17-Methyltestosterone]
Settings | LDH release cytotoxicity [%]
0.03162 µM | -1.79
0.1 µM | -1.97
0.3162278 µM | -1.97
1 µM | -1.95
3.16228 µM | -2.67
10 µM | -2.51
31.6228 µM | -2.52
100 µM | -1.06

CC12CCC3c4ccc(O)cc4CCC3C1CCC2O (stereo not drawn) [17alpha-Estradiol]
Settings | LDH release cytotoxicity [%]
0.03162 µM | -0.65
0.1 µM | -1.91
0.3162278 µM | -1.67
1 µM | -1.6
3.16228 µM | -1.26
10 µM | -1.72
31.6228 µM | -0.072
100 µM | 1.51

C#CC1(O)CCC2C3CCc4cc(O)ccc4C3CCC21C (stereo not drawn) [17alpha-Ethinylestradiol]
Settings | LDH release cytotoxicity [%]
0.03162 µM | -0.935
0.1 µM | -0.618
0.3162278 µM | -0.346
1 µM | -0.588
3.16228 µM | -0.768
10 µM | -0.554
31.6228 µM | 0.171
100 µM | 1.412
